The values below come from paper PMC10645073, “Interaction of gallium, indium and vanadyl diacetylcurcumin complexes with lysozyme: mechanistic aspects and evaluation of antiamyloidogenic activity” (Royal Society Open Science, 2023).

One data set has as its system mouse lymphoma cells. Further details: method as in PMID 16171869. Particulars: read-out: IC50 cytotoxicity; cited from earlier work.
In a further data set the test system is Aβ42. The conditions noted are these: copper-induced Aβ42 cross-linking; cited from earlier work.
The target in data set [1] is T1, hen egg white lysozyme (HEWL) (Gallus gallus, UniProt P00698).
T1 construct: whose 129 amino acid residues are linked together by four disulfide bridges to form a single polypeptide chain; purchased Sigma-Aldrich L6876; host or cells: hen egg white (natural source, per the protein's name)
Kind of data set: Intrinsic fluorescence quenching of HEWL (Stern-Volmer, double logarithmic and van't Hoff analysis). The data set is classed as binding. The conditions noted are these: for KSV (Stern-Volmer quenching constant): HEWL 3 µM; for kq (bimolecular quenching rate constant): kq = KSV/τ0, τ0 10^−8 s. The procedure: The intrinsic fluorescence spectra of HEWL (3 µM) in the absence and presence of Ga(DAC)3, In(DAC)3 and VO(DAC)2 complexes were collected using a Varian Cary Eclipse fluorescence spectrophotometer equipped with a 10 mm quartz cell by adjusting the excitation wavelength to 295 nm and setting the width of both excitation and emission slits at 5 nm. After adding the mentioned concentrations of the metal complexes of diacetylcurcumin to HEWL solution, the samples were scanned in the wavelength range of 300–500 nm. Corrections were made for the inner filter effect on the fluorescence spectra according to the following equation: Fcor=Fobs×10^(Aex+Aem)/2, where Fcor is corrected fluorescence intensity, Fobs is the observed (uncorrected) fluorescence intensity, Aex is the absorbance at the fluorescence excitation wavelength and Aem is the absorbance at the selected fluorescence emission wavelength.
The fluorescence quenching process of HEWL in the presence of three metal complexes of diacetylcurcumin can be quantified according to the well-known Stern-Volmer equation:3.1 F0/F=1+KSV[Q]=1+kqτ0[Q],
where F0 and F represent the intrinsic emission intensities of HEWL fluorophores, respectively, in the absence and presence of the metal complexes of diacetylcurcumin, and [Q] is the molar concentration of quencher. KSV, kq and τ0 denote the Stern-Volmer quenching constant, bimolecular quenching rate constant, and the average lifetime of fluorophore without quencher, respectively. The value of KSV, as a parameter of the sensitivity of the fluorophore to a quencher, can be estimated from the slope of the linear plot of F0/F as a function of [Q] (figure 2d,e,f; electronic supplementary material, figure S1). To obtain more accurate quantification of fluorescence data, the total area of the emission fluorescence peaks (S0 and S) was applied instead of the emission fluorescence intensities (F0 and F). The fluorescence quenching phenomenon can be generally divided into two distinct classes: static quenching and dynamic quenching. Owing to the reciprocal and direct correlations between the KSV parameter and temperature, respectively, for static and dynamic quenching, the observed trend in the KSV value versus temperature can be used to distinguish these mechanisms from each other. In dynamic quenching, an increase in temperature leads to faster diffusion of molecules by which weakly bound nonfluorescent complexes are further dissociated, and the value of KSV increases. From the data recorded in table 1, it can be seen that the KSV value of HEWL/Ga(DAC)3 and HEWL/In(DAC)3 systems decreases as temperature increases, while it increases with increasing temperature for the HEWL/VO(DAC)2 system. […] Considering a lifetime value of 10^−8 s for the native fluorophores, [27] the equation kq = KSV/τ0 gives the kq values greater than the diffusion-limited quenching value of 2.0 × 10 ^+ 10 M^−1 s^−1 for all systems.
Assuming that all the binding sites of HEWL are identical and independent and an equilibrium interaction is established between HEWL and each of the metal complexes of diacetylcurcumin, the fluorescence quenching process can be further analysed by the following double logarithmic equation:3.2 log(F0−F/F)=logKb+nlog[Q], where Kb and n represent the binding constant and number of binding sites on each HEWL molecule, respectively. Plotting log[(F0 − F)/F] versus log[Q] produces a straight line whose slope and intercept can be used respectively to estimate the values of n and Kb (electronic supplementary material, figures S2A, S2B, S2C and S3). […] In other words, the resulting bioconjugates are the product of the interaction between HEWL and the metal complexes of diacetylcurcumin with a 1 : 1 stoichiometry. […]

For data set [2], the target named is T1, hen egg white lysozyme (HEWL). Kind of data set: Synchronous fluorescence spectroscopy of HEWL. The data set is classed as binding. Particulars: Δλ = 60 nm. The protocol:
To obtain synchronous fluorescence spectra, simultaneous scanning of excitation and emission monochromators was performed in such a way as to maintain a constant wavelength interval between them. The changes in the molecular microenvironment of tyrosine and tryptophan residues of HEWL were monitored by fixing the wavelength interval (Δλ = λem − λex) individually at 15 and 60 nm, respectively. The concentrations of HEWL and three metal complexes of diacetylcurcumin were the same as those mentioned for the intrinsic fluorescence spectroscopy.
To investigate the effect of the metal complexes of diacetylcurcumin on the conformation of tyrosine and tryptophan residues of HEWL, synchronous fluorescence spectra of HEWL were recorded alone and in the presence of the metal complexes (electronic supplementary material, figure S5). By fixing the Δλ value, i.e. the difference between excitation and emission wavelengths, at 15 and 60 nm, synchronous fluorescence spectroscopy provides useful information on the microenvironmental changes of tyrosine and tryptophan residues of proteins, respectively. As shown in the electronic supplementary material, figure S5, all three metal complexes of diacetylcurcumin strongly quench the emission fluorescence of HEWL at both 15 and 60 nm. […] At Δλ = 15 nm, no shift in the emission maximum of HEWL is observed, whereas at Δλ = 60 nm, a 2 nm blue shift is observed in the emission spectrum of tryptophan residues of the protein after the interaction with the metal complexes of diacetylcurcumin except for the VO(DAC)2 complex. […] Overall, it can be concluded that the formation of HEWL/metal complex bioconjugates is associated with the binding of three metal complexes of diacetylcurcumin to both tyrosine and tryptophan residues in which the conformational changes can occur only around the tryptophan residues of the protein. It should be noted that the reduction in the polarity of the microregions surrounding tryptophan residues of the protein has already been observed by the intrinsic emission fluorescence titrations (see §3.1.1.).

`COc1cc(C=CC(=O)CC(=O)C=Cc2ccc(O)c(OC)c2)ccc1O` [curcumin, 1,7-bis(4-hydroxy-3-methoxyphenyl)-1,6-heptadiene-3,5-dione]: the IC50 in the data set with mouse lymphoma cells was 25 to 30 µM.

CRANAD-17: in the data set with Aβ42, the “effect on Aβ amyloid formation” value is recorded as “considerably reduces Aβ amyloid formation”.

With `COc1cc(C=CC(=O)C=C([O-])C=Cc2ccc(OC(C)=O)c(OC)c2)ccc1OC(C)=O.COc1cc(C=CC(=O)C=C([O-])C=Cc2ccc(OC(C)=O)c(OC)c2)ccc1OC(C)=O.COc1cc(C=CC(=O)C=C([O-])C=Cc2ccc(OC(C)=O)c(OC)c2)ccc1OC(C)=O.[Ga+3]` [Ga(DAC)3, gallium diacetylcurcumin], in data set [1] (T 293 K), the “n (number of binding sites on each HEWL molecule)” value was “(0.92 ± 0.02)”, the “ΔG^0 (Gibbs free energy change of binding)” value was -5.081 ± 0.139 kcal/mol, the “KSV (Stern-Volmer quenching constant)” value was “(1.46 ± 0.02) × 10^+4 M^−1” and the “kq (bimolecular quenching rate constant)” value was “(1.46 ± 0.02) × 10^+12 M^−1 s^−1”. Also, in data set [1] (T 303 K), the “n (number of binding sites on each HEWL molecule)” value is listed as “(0.80 ± 0.02)”, the “ΔG^0 (Gibbs free energy change of binding)” value is -5.057 ± 0.139 kcal/mol, the “KSV (Stern-Volmer quenching constant)” value is reported as “(1.30 ± 0.01) × 10^+4 M^−1” and the “kq (bimolecular quenching rate constant)” value is on record as “(1.30 ± 0.01) × 10^+12 M^−1 s^−1”. Moreover, in data set [1] (T 308 K), the “n (number of binding sites on each HEWL molecule)” value is “(0.89 ± 0.02)”, the “ΔG^0 (Gibbs free energy change of binding)” value is -5.045 ± 0.139 kcal/mol, the “KSV (Stern-Volmer quenching constant)” value is recorded as “(1.25 ± 0.01) × 10^+4 M^−1” and the “kq (bimolecular quenching rate constant)” value is on record as “(1.25 ± 0.01) × 10^+12 M^−1 s^−1”. Further, in data set [1] (excitation 295 nm, emission maximum 345 nm), the “blue shift of HEWL emission maximum on quenching” value was 4 nm. Also, the fluorescence quenching mechanism result in data set [1] (from KSV versus temperature and kq) is given as “static mechanism”. Besides, the “main forces / modes of interaction stabilizing the bioconjugate” value in data set [1] (from signs of ΔH^0 and ΔS^0) is “van der Waals interactions and hydrogen bonds”. Besides, the “binding constant, order of magnitude” value in data set [1] (summary of table 1) is on record as 10^+3 M^−1. Also, in data set [1] (van't Hoff plot over 293–308 K), the “ΔH^0 (enthalpy change of binding)” value was -5.817 ± 0.0406 kcal/mol and the “ΔS^0 (entropy change of binding)” value is listed as −10.50 ± 0.55 J mol^−1 K^−1. For the same molecule, the “microenvironment of tryptophan residues of HEWL” value in data set [2] is reported as “more hydrophobic”. Besides, in the data set on mouse lymphoma cells, the IC50 is 25 to 30 µM.
